Experimental data from patent US12528792B2, “Sulfonamide compounds and the use thereof in the treatment of cancer” (TROBIO THERAPEUTICS PTY LTD, priority 2019, dated 2026).

Key:
[1] = target: F-actin/Tpm3.1 (Homo sapiens, UniProt P06753); assay: Actin depolymerisation assay; assay type: biochemical; details: 50 μmol/L test compound, FIG. 1
Experimental: A 12 μmol/L solution of labelled F-actin was prepared by polymerising the monomeric actin (35% pyrene labelled Rabbit Muscle (Cytoskeleton Inc)) into filaments in the presence of buffer T (100 mmol/L NaCl; 10 mmol/L Tris HCl PH 7.5; 2 mmol/L MgCl2; 1 mmol/L EGTA; 0.5 mmol/L DTT) with added ATP (0.2 mmol/L), for 1 hour in the dark at room temperature. Tpm3.1 (10 μmol/L) was reduced in buffer T containing 1 mmol/L DTT at 70° C. for 6 minutes and centrifuged at 60,000 rpm for 30 minutes to remove nonreduced dimers. […] Duplicate samples were diluted 12-fold using an F-actin polymerisation buffer (100 mmol/L NaCl; 10 mmol/L Tris HCl PH 7; 2 mmol/L MgCl2; 1 mmol/L EGTA; 0.2 mmol/L ATP; 1 mmol/L DTT) and the depolymerisation rates of F-actin alone, F-actin/Tpm3.1, and the F-actin/Tpm3.1/test compound filament complex were measured using a Costar 3915 fluorescence plate reader (407 nm) at 36-second intervals for 160 minutes at room temperature. Data were normalized to the initial fluorescence value and polymerisation curves of duplicate samples were fitted to a two-phase exponential decay model using OriginPro 9.1 (OriginLab) (FIG. 1A). Percent polymerisation was determined at t160 as a function of to (100%) (FIG. 1B, p<0.0001).

[2] = system: A2780 (ovarian) cells; assay: Anti-proliferative activity, Cell-Titre luminescent viability assay; assay type: cell-based; details: Homo sapiens, 72 h exposure, Cell-Titre luminescent reagent
How it was run: (§1)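 Cells attached 24 h at 37° C., 5% CO2, then treated 72 h with compound at 0.3–100 μM or 0.1–30 μM. Viability read by Cell-Titre luminescence after 30 min reagent exposure, normalized to vehicle; EC50 from variable-slope sigmoidal nonlinear regression.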

[3] = system: PC3 (prostate) cells; assay: as above; assay type: cell-based; details: 72 h exposure, Cell-Titre luminescent reagent
How it was run: as §1

[4] = system: Caco-2 (colorectal) cells; assay: as above; assay type: cell-based; details: Homo sapiens, 72 h exposure, Cell-Titre luminescent reagent
How it was run: as §1

[5] = system: MIA PaCa-2 (pancreatic) cells; assay: as above; assay type: cell-based; details: Homo sapiens, 72 h exposure, Cell-Titre luminescent reagent
How it was run: as §1

[6] = system: SK-N-SH neuroblastoma cells; assay: Cytotoxicity assay, MTS viability; assay type: cell-based; details: Homo sapiens, 72 hours
How it was run: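 SK-N-SH cells, 2×10^3/well in DMEM with 10% FBS at 37 °C, treated with 1:2 compound series from 100 μM; MTS viability read after 72 hours. Viability normalised to vehicle control; EC50 taken from dose-response curves.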

- IC50 [2]: 4.9 µM
- IC50 [3]: 7.7 µM
- IC50 [4]: 6.1 µM
- IC50 [5]: 10.1 µM
SMILES: O=C(Nc1ccc(C(F)(F)F)cc1)c1ccn(S(=O)(=O)c2ccc3[nH]ccc3c2)c1 [Compound 26, 1-((1H-indol-5-yl)sulfonyl)-N-(4-(trifluoromethyl)phenyl)-1H-pyrrole-3-carboxamide]
- Inhibition of Tpm3.1 protection of actin filaments from depolymerisation [1]: inhibit the ability of Tpm3.1 to protect actin filaments from depolymerisation
- IC50 [6]: 7.87 µM
